In test [1] the test system is Eotaxin-3 (CCL26) release in human whole blood stimulated with IL-4. In words: Human whole blood eotaxin-3 assay (IL-4 stimulated, Eotaxin-3 release). It counts as cell-based. A digest of the protocol: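 Lithium-heparin blood preincubated 2 h at 37° C with 4-fold compound dilutions (0.5% DMSO, triplicates), then stimulated with 400 pM recombinant human IL-4 for 48 h. Eotaxin-3 in plasma supernatant measured by MSD immunoassay.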

The target in the next test is human STAT6 (Homo sapiens (Human), UniProt P42226). Briefly: Surface plasmon resonance assay (Biacore 8K, binding to immobilized STAT6). To be noted: human STAT6 aa122-658, N-terminal His-tag, CM5 chip, 25° C.; geometric mean; read-out: STAT6 SPR Kd. A digest of the protocol:
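Run at 25° C with His-tagged STAT6 aa122-658 (insect-cell expressed) amine-coupled to a CM5 chip, reference-subtracted, in PBS-P+ with 2% DMSO. Multi-cycle kinetics: 60 sec. contact, up to 300 sec. dissociation. Affinity fitted from late report-point binding isotherms, with Rmax both free and fixed to theoretical 1:1.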
(In general: SPR reads the build-up and loss of mass on a sensor chip optically.)

Chain of human STAT6 (P42226 122-658): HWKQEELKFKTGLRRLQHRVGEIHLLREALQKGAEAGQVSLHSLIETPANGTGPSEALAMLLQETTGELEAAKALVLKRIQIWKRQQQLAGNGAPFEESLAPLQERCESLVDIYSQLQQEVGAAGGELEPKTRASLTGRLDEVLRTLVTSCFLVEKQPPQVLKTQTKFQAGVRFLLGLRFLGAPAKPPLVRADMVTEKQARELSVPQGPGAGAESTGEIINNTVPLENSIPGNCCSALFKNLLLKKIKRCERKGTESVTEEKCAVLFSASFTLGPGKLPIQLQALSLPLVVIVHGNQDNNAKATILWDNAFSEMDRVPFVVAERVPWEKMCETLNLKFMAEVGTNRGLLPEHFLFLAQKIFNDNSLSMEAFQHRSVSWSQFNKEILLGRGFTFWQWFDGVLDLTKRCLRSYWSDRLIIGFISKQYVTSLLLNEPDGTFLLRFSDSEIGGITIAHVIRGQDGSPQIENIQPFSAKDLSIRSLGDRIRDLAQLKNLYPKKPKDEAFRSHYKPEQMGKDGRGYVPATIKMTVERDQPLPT

One may read the EC50 as the concentration at which the effect is half-maximal. By Kd is commonly meant the constant that tells how readily two partners part at equilibrium. For `CNc1ccc(-c2ccnc3c2cc(CN2CCC(c4ccc(C(=O)N(C)C)cc4)CC2)n3C)[n+]([O-])c1` [Example 1u2, N,N-Dimethyl-4-[1-[[1-methyl-4-[5-(methylamino)-1-oxido-pyridin-1-ium-2-yl]pyrrolo[2,3-b]pyridin-2-yl]methyl]-4-piperidyl]benzamide], the 50% effective concentration (EC50) in test [1] (Homo sapiens, Hec50, 48 h) is 328 nM. Also, the Kd on human STAT6 amounted to 44.9 nM.

In turn, `CNc1ccc(-c2ccnc3c2cc(CN2CC=C(c4ccc(C(=O)N(C)C)cc4C)CC2)n3C)[n+]([O-])c1` [Example 1u3, N,N,3-Trimethyl-4-[1-[[1-methyl-4-[5-(methylamino)-1-oxido-pyridin-1-ium-2-yl]pyrrolo[2,3-b]pyridin-2-yl]methyl]-3,6-dihydro-2H-pyridin-4-yl]benzamide] displayed an EC50 in test [1] (Homo sapiens, Hec50, 48 h) of 104 nM. Besides, the Kd at human STAT6 amounted to 16 nM.

For the molecule `CNc1ccc(-c2ccnc3c2cc(CN2CCC(c4ccc(C(=O)N(C)C)cc4)CC2)n3S(C)(=O)=O)cn1` [Example 1x1, N,N-Dimethyl-4-[1-[[4-[6-(methylamino)-3-pyridyl]-1-methylsulfonyl-pyrrolo[2,3-b]pyridin-2-yl]methyl]-4-piperidyl]benzamide], the EC50 in test [1] (Homo sapiens, Hec50, 48 h) is 1110 nM. On human STAT6, the Kd worked out at 29.5 nM.

On to “N,N-Dimethyl-4-[1-[[1-methyl-4-[6-(methylamino)-3-pyridyl]pyrrolo[2,3-b]pyridin-2-yl]methyl]-4-piperidyl]benzamide [Example 1k37]”, for which the half-maximal effective concentration (EC50) in test [1] (human whole blood, 400 pM recombinant human IL-4, 48 h, EC50 provided for compounds with >80% Emax, geometric mean) was 7160 nM. On human STAT6, the dissociation constant Kd was 16 nM.

Values taken from patent US20250340551A1, “SMALL MOLECULE MODULATORS OF STAT6” (Gilead Sciences, Inc., priority 2024, published 2025).
